Assay results reported in ChEMBL document CHEMBL4613325, “Design of Development Candidate eFT226, a First in Class Inhibitor of Eukaryotic Initiation Factor 4A RNA Helicase” (J Med Chem, 2020).
Active and inactive are the calls of the source. The rule behind the calls is not given here.

Key:
[1] = target: T1, Eukaryotic initiation factor 4A-I (Homo sapiens, UniProt P60842); test: Inhibition of eIF4A1 in human MDA-MB-231 cells assessed as inhibition of cellular-translation incubated for 4 hrs by specific tandem sequence motif repeat AGAGAG in 5'- UTR containing luciferase reporter gene assay; type: cell-based
T1 sequence (P60842 whole entry): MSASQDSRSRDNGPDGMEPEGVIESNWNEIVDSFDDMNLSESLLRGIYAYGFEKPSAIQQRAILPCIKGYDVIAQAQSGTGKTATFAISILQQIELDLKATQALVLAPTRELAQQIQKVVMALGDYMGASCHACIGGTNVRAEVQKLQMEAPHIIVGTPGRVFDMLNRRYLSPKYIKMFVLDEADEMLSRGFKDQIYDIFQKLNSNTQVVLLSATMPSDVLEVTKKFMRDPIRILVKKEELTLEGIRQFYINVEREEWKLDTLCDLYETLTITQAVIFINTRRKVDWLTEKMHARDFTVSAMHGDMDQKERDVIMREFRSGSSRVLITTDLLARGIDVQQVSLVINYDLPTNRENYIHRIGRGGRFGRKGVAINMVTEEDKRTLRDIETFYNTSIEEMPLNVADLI

[2] = target: T1, Eukaryotic initiation factor 4A-I; test: Inhibition of eIF4A1 in human MDA-MB-231 cells assessed as inhibition of cellular-translation incubated for 4 hrs by specific tandem sequence motif repeat GGCGGC in 5'- UTR containing luciferase reporter gene assay; type: cell-based
[3] = target: T1, Eukaryotic initiation factor 4A-I; test: Inhibition of eIF4A1 in human MDA-MB-231 cells assessed as inhibition of cellular-translation incubated for 4 hrs by specific tandem sequence motif repeat CCGCCG in 5'- UTR containing luciferase reporter gene assay; type: cell-based
[4] = target: T1, Eukaryotic initiation factor 4A-I; test: Inhibition of eIF4A1 in human MDA-MB-231 cells assessed as inhibition of cellular-translation incubated for 4 hrs by specific tandem sequence motif repeat CAACAA in 5'- UTR containing luciferase reporter gene assay; type: cell-based
MDA-MB-231 [5] = test: Antiproliferative activity against human MDA-MB-231 cells assessed as reduction in cell proliferation incubated for 72 hrs by CellTiter-Glo reagent based assay; type: functional; conditions: MDA-MB-231, 72 h
[6] = Apparent permeability from apical to basolateral side in human Caco2 cells at 10 uM by LC/MS/MS analysis
[7] = Efflux ratio in human Caco2 cells at 10 uM by LC/MS/MS analysis
[8] = Stability in rat liver microsomes assessed as parent compound remaining at 1 uM pre-incubated for 10 mins before NADPH addition and measured after 30 mins by LC/MS/MS analysis; type: ADME, Microsome; conditions: read-out: Stability
[9] = Stability in human liver microsomes assessed as parent compound remaining at 1 uM pre-incubated for 10 mins before NADPH addition and measured after 30 mins by LC/MS/MS analysis; type: ADME, Microsome; conditions: read-out: Stability
hERG (KCNH2) = hERG (KCNH2) (Homo sapiens, UniProt Q12809); test: Inhibition of human ERG at 10 uM by patch-clamp assay relative to control
Chain of hERG (KCNH2) (Q12809 whole entry): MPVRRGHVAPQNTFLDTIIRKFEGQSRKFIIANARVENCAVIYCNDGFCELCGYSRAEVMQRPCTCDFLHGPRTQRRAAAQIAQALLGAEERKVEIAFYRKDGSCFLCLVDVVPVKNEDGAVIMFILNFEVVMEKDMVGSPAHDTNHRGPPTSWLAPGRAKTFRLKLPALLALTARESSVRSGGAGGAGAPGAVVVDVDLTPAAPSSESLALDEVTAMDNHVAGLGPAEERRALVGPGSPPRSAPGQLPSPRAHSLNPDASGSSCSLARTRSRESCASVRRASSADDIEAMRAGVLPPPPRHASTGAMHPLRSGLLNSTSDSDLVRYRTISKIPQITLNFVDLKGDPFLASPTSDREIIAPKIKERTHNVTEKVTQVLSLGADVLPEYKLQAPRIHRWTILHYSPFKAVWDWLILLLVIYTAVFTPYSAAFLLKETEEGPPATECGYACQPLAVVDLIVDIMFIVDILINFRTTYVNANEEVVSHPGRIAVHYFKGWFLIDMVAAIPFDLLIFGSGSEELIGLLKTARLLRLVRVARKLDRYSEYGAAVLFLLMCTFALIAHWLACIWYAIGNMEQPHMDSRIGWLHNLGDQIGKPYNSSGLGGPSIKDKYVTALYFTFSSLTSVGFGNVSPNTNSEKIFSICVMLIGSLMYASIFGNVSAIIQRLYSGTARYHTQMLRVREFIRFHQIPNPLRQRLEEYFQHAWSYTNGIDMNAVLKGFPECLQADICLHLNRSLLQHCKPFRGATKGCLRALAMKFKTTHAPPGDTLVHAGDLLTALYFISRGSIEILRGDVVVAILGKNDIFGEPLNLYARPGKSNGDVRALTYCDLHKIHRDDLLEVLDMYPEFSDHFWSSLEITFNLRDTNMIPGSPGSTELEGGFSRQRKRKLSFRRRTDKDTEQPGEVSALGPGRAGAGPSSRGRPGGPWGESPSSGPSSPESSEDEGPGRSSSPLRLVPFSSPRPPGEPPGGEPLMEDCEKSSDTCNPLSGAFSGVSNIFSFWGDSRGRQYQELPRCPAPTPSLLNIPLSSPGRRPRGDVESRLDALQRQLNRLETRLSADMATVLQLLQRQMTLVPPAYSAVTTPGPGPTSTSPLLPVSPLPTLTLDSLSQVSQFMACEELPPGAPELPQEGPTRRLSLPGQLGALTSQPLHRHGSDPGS

[10] = Clearance in iv dosed rat; type: ADME, organism-based; conditions: in vivo
[11] = Volume of distribution at steady state in iv dosed rat; type: ADME, organism-based; conditions: in vivo, read-out: Vdss
[12] = Half life in iv dosed rat; type: ADME, organism-based; conditions: in vivo
[13] = AUC in iv dosed rat; type: ADME, organism-based; conditions: in vivo
[14] = target: Voltage-gated inwardly rectifying potassium channel KCNH2 (Homo sapiens, UniProt Q12809); test: Inhibition of human ERG by patch-clamp assay
Chain of Voltage-gated inwardly rectifying potassium channel KCNH2 (Q12809 whole entry): as above

[15] = target: T1, Eukaryotic initiation factor 4A-I; test: Binding affinity to full length recombinant eIF4A1 (unknown origin) assessed as induction ternary complex formation in presence of AGAGAG by measuring half life for AGAGAG + ATP complex formation SPR assay
[16] = target: T1, Eukaryotic initiation factor 4A-I; test: Binding affinity to full length recombinant eIF4A1 (unknown origin) assessed as induction ternary complex formation in presence of AGAGAG by measuring half life for AGAGAG + AMP-PNP complex formation SPR assay
[17] = target: T1, Eukaryotic initiation factor 4A-I; test: Binding affinity to full length recombinant eIF4A1 (unknown origin) assessed as induction ternary complex formation in presence of DNA oligo sequences by measuring Kd for DNA oligo sequences + ATP complex formation SPR assay
[18] = target: T1, Eukaryotic initiation factor 4A-I; test: Inhibition of eIF4A1 in human HAP1 cells assessed as reduction in c-MYC protein expression at 5 to 50 nM incubated for 24 hrs by Western blot analysis; type: cell-based
[19] = target: T1, Eukaryotic initiation factor 4A-I; test: Inhibition of eIF4A1 in human HAP1 cells assessed as reduction in MCL-1 protein expression at 5 to 50 nM incubated for 24 hrs by Western blot analysis; type: cell-based
[20] = target: T1, Eukaryotic initiation factor 4A-I; test: Inhibition of eIF4A1 in human HAP1 cells assessed as reduction in Cyclin D1 protein expression at 5 to 50 nM incubated for 24 hrs by Western blot analysis; type: cell-based
HAP1 [21] = test: Inhibition of eIF4A1 F163L mutant in human HAP1 cells assessed as reduction in c-MYC protein expression at 5 to 50 nM incubated for 24 hrs by Western blot analysis; type: cell-based
HAP1 [22] = test: Inhibition of eIF4A1 F163L mutant in human HAP1 cells assessed as reduction in MCL-1 protein expression at 5 to 50 nM incubated for 24 hrs by Western blot analysis; type: cell-based
HAP1 [23] = test: Inhibition of eIF4A1 F163L mutant in human HAP1 cells assessed as reduction in Cyclin D1 protein expression at 5 to 50 nM incubated for 24 hrs by Western blot analysis; type: cell-based
Homo sapiens = organism: Homo sapiens; test: Inhibition of L-type calcium channel diltiazem binding site (unknown origin) at 10 uM relative to control
MDA-MB-231 [24] = test: Induction of cell cycle arrest in human MDA-MB-231 cells assessed as increase in G2/M population incubated for 24 hrs by LIVE/DEAD fixable dead cell staining based flow cyclometry; type: functional
MDA-MB-231 [25] = test: Induction of apoptosis in human MDA-MB-231 cells assessed as increase in apoptotic cells level incubated for 24 hrs by annexin V and propidium iodide staining based flow cyclometry; type: functional, cell-based
MDA-MB-231 [26] = test: Induction of apoptosis in human MDA-MB-231 cells assessed as increase in dead cells level incubated for 24 hrs by annexin V and propidium iodide staining based flow cyclometry; type: functional, cell-based
[27] = target: T1, Eukaryotic initiation factor 4A-I; test: Inhibition of eIF4A1 in human MDA-MB-231 cells assessed as reduction in cyclin D1 protein expression at 10 to 100 nM incubated for 24 hrs by Western blot analysis; type: cell-based
[28] = target: T1, Eukaryotic initiation factor 4A-I; test: Inhibition of eIF4A1 in human MDA-MB-231 cells assessed as reduction in BCL2 protein expression at 10 to 100 nM incubated for 24 hrs by Western blot analysis; type: cell-based

SMILES: C[C@@H]1C[C@@H]([C@H](O)CC2CC(=O)NC(=O)C2)C(=O)[C@@H](C)C1 [CYCLOHEXIMIDE]
- IC50 [1]: 226 nM
- IC50 [2]: 101 nM
- IC50 [3]: 87 nM
- IC50 [4]: 142 nM

SMILES: C[C@H]1C[C@@]2(O[C@H]3C[C@H]4[C@@H]5CC[C@H]6C[C@H](O)CC[C@]6(C)[C@H]5[C@@H](O)C[C@]4(C)[C@H]3[C@@]2(C)O)OC1(C)C [HIPPURISTANOL]
- IC50 [1]: 426 nM
- IC50 [2]: 369 nM
- IC50 [3]: 210 nM
- IC50 [4]: 204 nM

SMILES: COc1cc2c(c(OC)n1)[C@]1(O)[C@H](O)[C@H](CN(C)C)[C@@H](c3ccccc3)[C@]1(c1ccc(C#N)cc1)O2.Cl
- solubility thermodynamic (physchem): > 20 mg/mL

SMILES: COc1cncc2c1[C@]1(O)[C@H](O)[C@H](CN3CCC(F)(F)CC3)[C@@H](c3ccccc3)[C@]1(c1ccc(C#N)cc1)O2
- IC50 (MDA-MB-231 [5]): 158 nM
- Papp A→B at 10 µM ([6]; Caco-2): 4.8 ×10⁻⁶ cm/s
- efflux ratio at 10 µM ([7]; Caco-2): 1.7
- remaining at 0.5 h, 1 µM [8]: 42%
- remaining at 0.5 h, 1 µM [9]: 45%
- inhibition at 10 µM (hERG (KCNH2)): 30%

SMILES: COc1cncc2c1[C@]1(O)[C@H](O)[C@H](CN)[C@@H](c3ccccc3)[C@]1(c1ccc(C#N)cc1)O2 (racemic)
- IC50 (MDA-MB-231 [5]): 211 nM
- Papp A→B at 10 µM ([6]; Caco-2): 0.11 ×10⁻⁶ cm/s
- efflux ratio at 10 µM ([7]; Caco-2): 4
- remaining at 0.5 h, 1 µM [8]: 104%
- remaining at 0.5 h, 1 µM [9]: 106%
- inhibition at 10 µM (hERG (KCNH2)): 11%

SMILES: CCN(CC)C[C@H]1[C@@H](O)[C@@]2(O)c3c(OC)cncc3O[C@@]2(c2ccc(C#N)cc2)[C@@H]1c1ccccc1
- IC50 (MDA-MB-231 [5]): 62 nM
- Papp A→B at 10 µM ([6]; Caco-2): 0.3 ×10⁻⁶ cm/s
- efflux ratio at 10 µM ([7]; Caco-2): 35
- remaining at 0.5 h, 1 µM [8]: 76%
- remaining at 0.5 h, 1 µM [9]: 73%
- inhibition at 10 µM (hERG (KCNH2)): 40%

SMILES: COc1cncc2c1[C@]1(O)[C@H](O)[C@H](C(=O)N(C)C)[C@@H](c3ccccc3)[C@]1(c1ccc(C#N)cc1)O2
- IC50 (MDA-MB-231 [5]): 33 nM
- Papp A→B at 10 µM ([6]; Caco-2): 0.65 ×10⁻⁶ cm/s
- efflux ratio at 10 µM ([7]; Caco-2): 5
- clearance [10]: 18 mL/min/kg
- Vd [11]: 1.1 L/kg
- half-life [12]: 2 h
- AUC [13]: 950 ng·h/mL

SMILES: COc1cncc2c1[C@]1(O)[C@H](O)[C@H](CN(C)C(C)(C)C)[C@@H](c3ccccc3)[C@]1(c1ccc(C#N)cc1)O2
- IC50 (MDA-MB-231 [5]): 140 nM
- Papp A→B at 10 µM ([6]; Caco-2): 0.1 ×10⁻⁶ cm/s
- efflux ratio at 10 µM ([7]; Caco-2): 57
- remaining at 0.5 h, 1 µM [8]: 77%
- remaining at 0.5 h, 1 µM [9]: 61%
- inhibition at 10 µM (hERG (KCNH2)): 16%

SMILES: COc1cncc2c1[C@]1(O)[C@H](O)[C@H](CN(C)C)[C@@H](c3ccccc3)[C@]1(c1ccc(C#N)cc1)O2 (stereo in doubt; (-)-37)
- IC50 (MDA-MB-231 [5]): 54 nM
- Papp A→B at 10 µM ([6]; Caco-2, Papp): 0.21 ×10⁻⁶ cm/s
- efflux ratio at 10 µM ([7]; Caco-2, Ratio): 22
- IC50 [14]: > 10000 nM
- clearance [10]: 39 mL/min/kg
- Vd [11]: 5.2 L/kg
- half-life [12]: 2.9 h
- AUC [13]: 440 ng·h/mL

SMILES: COc1cc2c(c(OC)n1)[C@]1(O)[C@H](O)[C@H](CN(C)C)[C@@H](c3ccccc3)[C@]1(c1ccc(C#N)cc1)O2
- T1/2 [15]: 1.32 min
- T1/2 [16]: 0.642 h
- Activity [17]: inactive
- inhibition [1]: Dose-dependent effect
- inhibition [2]: Dose-dependent effect
- inhibition [3]: Dose-dependent effect
- inhibition [4]: Dose-dependent effect
- inhibition [18]: Dose-dependent effect
- inhibition [19]: Dose-dependent effect
- inhibition [20]: Dose-dependent effect
- inhibition (HAP1 [21]): inactive
- inhibition (HAP1 [22]): inactive
- inhibition (HAP1 [23]): inactive
- inhibition (Homo sapiens): 54%
- Activity (MDA-MB-231 [24]): Dose-dependent effect
- Activity (MDA-MB-231 [25]): Dose-dependent effect
- Activity (MDA-MB-231 [26]): Dose-dependent effect
- inhibition [27]: Active
- inhibition [28]: Active

SMILES: COc1nc(C#N)cc2c1[C@]1(O)[C@H](O)[C@H](CN(C)C)[C@@H](c3ccccc3)[C@]1(c1ccc(C#N)cc1)O2
- IC50 (MDA-MB-231 [5]): 15 nM
- clearance [10]: 26 mL/min/kg
- Vd [11]: 10.3 L/kg
- half-life [12]: 11 h
- AUC [13]: 730 ng·h/mL

SMILES: COc1cncc2c1[C@]1(O)[C@H](O)[C@H](C(=O)N(C)C)[C@@H](c3ccccc3)[C@]1(c1ccc(C#N)cc1)O2.Cl
- solubility thermodynamic (physchem): 0.22 mg/mL

SMILES: COc1cncc2c1[C@]1(O)[C@H](O)[C@H](CN(C)C)[C@@H](c3ccccc3)[C@]1(c1ccc(C#N)cc1)O2.Cl
- solubility thermodynamic (physchem): > 20 mg/mL
